Reference: publication PMC7531004, “Discovery of gramicidin A analogues with altered activities by multidimensional screening of a one-bead-one-compound library” (Nature Communications, 2020)
Where a SMILES comes first, the peptide text is derived from it. [ ]: non-standard residue; d: D form. The star is where a group is joined. NHCH2CH2OH = OCCN*; For = O=C*

What was measured:
[1] = H+/Na+ transport assay of bead-derived peptides (one-point); type: biochemical; parameters: key: relative activity; mean of two control wells = 1.00; settings: bead-derived peptide solution, EYPC/EYPG LUVs;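 further: relative to parent gramicidin A activity set to 1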
How it was run: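 Values are normalized fluorescence, with Triton X-100 defining 100% and untreated LUVs 0%, and the two control wells averaging 1.00. Vesicles carried 1.0 mM pyranine and included egg yolk phosphatidylglycerol. Peptides were incubated with them 30 min at room temperature.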

[2] = tested on: P388 mouse leukemia cells; settings: 92 h
How it was run: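 P388 cells at 1 × 10^4 cells/mL (final) were exposed to library peptides (stocks diluted 250-fold in RPMI1640/10% FBS) for 92 h at 37 °C, 5% CO2. Viable cells were counted by WST-1/1-methoxy PMS (4 h), absorbance 415 nm, and expressed as cell viability (%).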

[3] = tested on: Streptococcus pyogenes SSI-9; experiment: Antibacterial activity assay of bead-derived peptides (three concentrations); type: cell-based; parameters: key: +++: inhibition by the 640-fold diluted peptide solution; ++: inhibition by the 160-fold diluted solution; +: inhibition by the 40-fold diluted solution; -: no inhibition; settings: S. pyogenes, bead-derived peptide solution, three concentrations
How it was run: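 Undiluted, 4-fold and 16-fold DMSO-diluted peptide stocks; S. pyogenes SSI-9, 2 × 10^5 CFU, cation-adjusted MHB (50 mg/L Ca2+, 25 mg/L Mg2+) + 5% laked horse blood; 37 °C, 18 h; readout = cell pellet visible or not.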

Compound	H+/Na+ transport activity normalized against the value of 1 (1.00) [1]	cell viability/% [2] [%]	antibacterial activity [3]
CNC(=O)C[C@@H](NC(=O)[C@H](Cc1c[nH]c2ccccc12)NC(=O)[C@H](NC(=O)[C@H](Cc1c[nH]c2ccccc12)NC(=O)[C@@H](CC(C)C)NC(=O)[C@H](Cc1c[nH]c2ccccc12)NC(=O)[C@@H](CC(C)C)NC(=O)[C@@H](NC(=O)[C@@H](CC(C)C)NC(=O)[C@H](C)NC(=O)[C@@H](CC(C)C)NC(=O)[C@H](C)NC(=O)CNC(=O)[C@@H](NC=O)C(C)C)C(C)C)C(C)C)C(=O)N[C@@H](Cc1c[nH]c2ccccc12)C(=O)NCCO [compound 3911] (For-VGA[dL]A[dL]V[dL]W[dL]W[dV]W[dD](NHMe)W-NHCH2CH2OH)	1.00	100.0	-
CC(C)C[C@@H](NC(=O)[C@H](C)NC(=O)[C@H](NC(=O)[C@H](C)NC(=O)CNC(=O)[C@@H](NC=O)C(C)C)C(C)C)C(=O)N[C@H](C(=O)N[C@H](CC(C)C)C(=O)N[C@@H](Cc1c[nH]c2ccccc12)C(=O)N[C@@H](C(=O)N[C@@H](Cc1c[nH]c2ccccc12)C(=O)N[C@@H](C(=O)N[C@@H](Cc1c[nH]c2ccccc12)C(=O)N[C@@H](C(=O)N[C@@H](Cc1c[nH]c2ccccc12)C(=O)NCCO)C(C)C)C(C)C)C(C)C)C(C)C [compound 4477] (For-VGA[dV]A[dL]V[dL]W[dV]W[dV]W[dV]W-NHCH2CH2OH)	1.38	6.3	+
CNC(=O)C[C@@H](NC(=O)[C@@H](NC(=O)[C@@H](CC(C)C)NC(=O)[C@H](C)NC(=O)[C@H](NC(=O)[C@H](C)NC(=O)CNC(=O)[C@@H](NC=O)C(C)C)C(C)C)C(C)C)C(=O)N[C@@H](Cc1c[nH]c2ccccc12)C(=O)N[C@H](CC(C)C)C(=O)N[C@@H](Cc1c[nH]c2ccccc12)C(=O)N[C@H](CC(C)C)C(=O)N[C@@H](Cc1c[nH]c2ccccc12)C(=O)N[C@@H](C(=O)N[C@@H](Cc1c[nH]c2ccccc12)C(=O)NCCO)C(C)C [compound 6360] (For-VGA[dV]A[dL]V[dD](NHMe)W[dL]W[dL]W[dV]W-NHCH2CH2OH)	1.03	67.2	-
CC(C)C[C@@H](NC(=O)[C@H](C)NC(=O)CNC(=O)[C@@H](NC=O)C(C)C)C(=O)N[C@@H](C)C(=O)N[C@H](CC(C)C)C(=O)N[C@H](C(=O)N[C@@H](C(=O)N[C@@H](Cc1c[nH]c2ccccc12)C(=O)N[C@@H](C(=O)N[C@@H](Cc1c[nH]c2ccccc12)C(=O)N[C@H](CC(C)C)C(=O)N[C@@H](Cc1c[nH]c2ccccc12)C(=O)N[C@H](CC(C)C)C(=O)N[C@@H](Cc1c[nH]c2ccccc12)C(=O)NCCO)[C@H](C)O)C(C)C)C(C)C [compound 8342] (For-VGA[dL]A[dL]V[dV]W[dT]W[dL]W[dL]W-NHCH2CH2OH)	1.00	54.5	-
CNC(=O)C[C@@H](NC(=O)[C@H](Cc1c[nH]c2ccccc12)NC(=O)[C@@H](CC(C)C)NC(=O)[C@H](Cc1c[nH]c2ccccc12)NC(=O)[C@H](NC(=O)[C@H](Cc1c[nH]c2ccccc12)NC(=O)[C@H](NC(=O)[C@@H](NC(=O)[C@@H](CC(C)C)NC(=O)[C@H](C)NC(=O)[C@H](NC(=O)[C@H](C)NC(=O)CNC(=O)[C@@H](NC=O)C(C)C)C(C)C)C(C)C)C(C)C)C(C)C)C(=O)N[C@@H](Cc1c[nH]c2ccccc12)C(=O)NCCO [compound 13317] (For-VGA[dV]A[dL]V[dV]W[dV]W[dL]W[dD](NHMe)W-NHCH2CH2OH)	1.04	100.0	-
CC(C)C[C@@H](NC(=O)[C@H](Cc1c[nH]c2ccccc12)NC(=O)[C@H](NC(=O)[C@H](Cc1c[nH]c2ccccc12)NC(=O)[C@H](NC(=O)[C@H](Cc1c[nH]c2ccccc12)NC(=O)[C@H](NC(=O)[C@@H](NC(=O)[C@H](NC(=O)[C@H](C)NC(=O)[C@H](NC(=O)[C@H](C)NC(=O)CNC(=O)[C@@H](NC=O)C(C)C)C(C)C)C(C)C)C(C)C)C(C)C)C(C)C)C(C)C)C(=O)N[C@@H](Cc1c[nH]c2ccccc12)C(=O)NCCO [compound 2182] (For-VGA[dV]A[dV]V[dV]W[dV]W[dV]W[dL]W-NHCH2CH2OH)	1.28	100.0	++
CC(C)C[C@@H](NC(=O)[C@H](Cc1c[nH]c2ccccc12)NC(=O)[C@H](NC(=O)[C@H](Cc1c[nH]c2ccccc12)NC(=O)[C@@H](CC(C)C)NC(=O)[C@H](Cc1c[nH]c2ccccc12)NC(=O)[C@@H](CC(C)C)NC(=O)[C@@H](NC(=O)[C@H](NC(=O)[C@H](C)NC(=O)[C@H](NC(=O)[C@H](C)NC(=O)CNC(=O)[C@@H](NC=O)C(C)C)C(C)C)C(C)C)C(C)C)[C@H](C)O)C(=O)N[C@@H](Cc1c[nH]c2ccccc12)C(=O)NCCO [compound 457] (For-VGA[dV]A[dV]V[dL]W[dL]W[dT]W[dL]W-NHCH2CH2OH)	1.08	95.8	+
CC(C)C[C@@H](NC(=O)[C@H](C)NC(=O)CNC(=O)[C@@H](NC=O)C(C)C)C(=O)N[C@@H](C)C(=O)N[C@H](CC(C)C)C(=O)N[C@H](C(=O)N[C@H](CC(C)C)C(=O)N[C@@H](Cc1c[nH]c2ccccc12)C(=O)N[C@@H](C(=O)N[C@@H](Cc1c[nH]c2ccccc12)C(=O)N[C@@H](C(=O)N[C@@H](Cc1c[nH]c2ccccc12)C(=O)N[C@@H](C(=O)N[C@@H](Cc1c[nH]c2ccccc12)C(=O)NCCO)C(C)C)C(C)C)[C@H](C)O)C(C)C [compound 5996] (For-VGA[dL]A[dL]V[dL]W[dT]W[dV]W[dV]W-NHCH2CH2OH)	1.08	78.7	-
CC(C)C[C@@H](NC(=O)[C@H](Cc1c[nH]c2ccccc12)NC(=O)[C@H](NC(=O)[C@H](Cc1c[nH]c2ccccc12)NC(=O)[C@@H](CC(C)C)NC(=O)[C@@H](NC(=O)[C@H](NC(=O)[C@H](C)NC(=O)[C@H](NC(=O)[C@H](C)NC(=O)CNC(=O)[C@@H](NC=O)C(C)C)[C@H](C)O)C(C)C)C(C)C)C(C)C)C(=O)N[C@@H](Cc1c[nH]c2ccccc12)C(=O)N[C@@H](C(=O)N[C@@H](Cc1c[nH]c2ccccc12)C(=O)NCCO)C(C)C [compound 11238] (For-VGA[dT]A[dV]V[dL]W[dV]W[dL]W[dV]W-NHCH2CH2OH)	1.03	64.7	-
CC(C)C[C@@H](NC(=O)[C@H](C)NC(=O)[C@H](NC(=O)[C@H](C)NC(=O)CNC(=O)[C@@H](NC=O)C(C)C)C(C)C)C(=O)N[C@H](C(=O)N[C@@H](C(=O)N[C@@H](Cc1c[nH]c2ccccc12)C(=O)N[C@@H](C(=O)N[C@@H](Cc1c[nH]c2ccccc12)C(=O)N[C@H](CC(C)C)C(=O)N[C@@H](Cc1c[nH]c2ccccc12)C(=O)N[C@H](CC(C)C)C(=O)N[C@@H](Cc1c[nH]c2ccccc12)C(=O)NCCO)C(C)C)C(C)C)C(C)C [compound 12099] (For-VGA[dV]A[dL]V[dV]W[dV]W[dL]W[dL]W-NHCH2CH2OH)	1.05	85.4	+
CC(C)C[C@@H](NC(=O)[C@H](C)NC(=O)[C@H](NC(=O)[C@H](C)NC(=O)CNC(=O)[C@@H](NC=O)C(C)C)C(C)C)C(=O)N[C@H](C(=O)N[C@@H](C(=O)N[C@@H](Cc1c[nH]c2ccccc12)C(=O)N[C@H](CC(C)C)C(=O)N[C@@H](Cc1c[nH]c2ccccc12)C(=O)N[C@@H](C(=O)N[C@@H](Cc1c[nH]c2ccccc12)C(=O)N[C@H](CC(C)C)C(=O)N[C@@H](Cc1c[nH]c2ccccc12)C(=O)NCCO)[C@H](C)O)C(C)C)C(C)C [compound 11374] (For-VGA[dV]A[dL]V[dV]W[dL]W[dT]W[dL]W-NHCH2CH2OH)	1.07	45.1	+
CC(C)C[C@@H](NC(=O)[C@H](C)NC(=O)CNC(=O)[C@@H](NC=O)C(C)C)C(=O)N[C@@H](C)C(=O)N[C@@H](C(=O)N[C@H](C(=O)N[C@H](CC(C)C)C(=O)N[C@@H](Cc1c[nH]c2ccccc12)C(=O)N[C@@H](C(=O)N[C@@H](Cc1c[nH]c2ccccc12)C(=O)N[C@H](CC(C)C)C(=O)N[C@@H](Cc1c[nH]c2ccccc12)C(=O)N[C@H](CC(C)C)C(=O)N[C@@H](Cc1c[nH]c2ccccc12)C(=O)NCCO)C(C)C)C(C)C)C(C)C [compound 8464] (For-VGA[dL]A[dV]V[dL]W[dV]W[dL]W[dL]W-NHCH2CH2OH)	1.23	4.1	-
CC(C)[C@H](NC=O)C(=O)NCC(=O)N[C@@H](C)C(=O)N[C@@H](C(=O)N[C@@H](C)C(=O)N[C@@H](C(=O)N[C@H](C(=O)N[C@@H](C(=O)N[C@@H](Cc1c[nH]c2ccccc12)C(=O)N[C@@H](C(=O)N[C@@H](Cc1c[nH]c2ccccc12)C(=O)N[C@@H](C(=O)N[C@@H](Cc1c[nH]c2ccccc12)C(=O)N[C@@H](C(=O)N[C@@H](Cc1c[nH]c2ccccc12)C(=O)NCCO)C(C)C)C(C)C)C(C)C)C(C)C)C(C)C)C(C)C)[C@H](C)O [compound 11453] (For-VGA[dT]A[dV]V[dV]W[dV]W[dV]W[dV]W-NHCH2CH2OH)	1.04	49.2	-
